Data: article PMC10002548, “Amorphous System of Hesperetin and Piperine—Improvement of Apparent Solubility, Permeability, and Biological Activities” (International Journal of Molecular Sciences, 2023)
Converted amounts (≈) assume the structure as drawn.

What was measured:
[1] = Dissolution study (paddle apparatus); type: physicochemical; conditions: phosphate buffer pH 6.8, 37 °C, 50 rpm; raw compound value after one hour
Description: (§1) The injection volume differed depending on the assay. […] The method’s duration was 10 min.
(§2) Phosphate buffer at pH 6.8 was prepared according to the following description: in a 1000-mL volumetric flask, we placed 250 mL of 0.2 N potassium dihydrogen phosphate solution, then added 112 mL of 0.2 N sodium hydroxide solution, and filled the mixture up to 1000 mL with distilled water. High-quality pure water was prepared using a Direct-Q 3 UV purification system (Millipore, Molsheim, France, model Exil SA 67120).
The dissolution study was performed on the paddle apparatus. The amount of the compound and systems corresponding to 7.0 mg of each plant-origin active ingredient was added to the dissolution medium. The vessels were filled with 500 mL of phosphate buffer, pH 6.8; the temperature was maintained at 37 °C, and the paddles were set at a stirring speed of 50 rotations per minute. The 2.0 mL samples were withdrawn at predetermined time points with the replacement of equal volumes of temperature-equilibrated media.

physchem = type: physicochemical; conditions: for solubility thermodynamic at 3 h: pH 6.8, aqueous buffer, thermodynamic from solid
Description: as §1, §2
An excess amount of raw compounds and systems was placed in a 10 mL glass tube; then, 2.0 mL of phosphate buffer (pH 6.8) was added and left at room temperature for 3 h.

in vitro = in vitro ADME
Description: as §1
The sandwich consists of two 96-well microfilter plates.

[2] = PAMPA BBB permeability assay
From the text: For the stationary phase, a Dr. Maisch ReproSil-Pur Basic-C18 100 Å column with 5 µm particle size and 250 × 4.60 mm (Dr. Maisch, Ammerbuch-Entringen, Germany) was used. […] The mobile phase was vacuum-filtered through a 0.45 µm nylon filter (Phenomenex, Torrance, CA, USA). […] The injection volume differed depending on the assay.
The sandwich consists of two 96-well microfilter plates. The PAMPA systems contain two chambers: the donor chamber at the bottom and the acceptor chamber at the top. […] The plates were combined and then incubated for 3 h for both models in a humidity-saturated atmosphere with the temperature set at 37 °C. To assess the apparent permeability coefficient factor (Papp), 5.0 mg of raw compounds were dissolved in 1.0 mL of DMSO. Then, we followed the manufacturer’s guidelines for further performance in the assay. […] In the case of the studied systems, the solutions were first prepared in the same manner as in the solubility study. […] Next, the obtained solution was diluted 1:1 with donor solution for the GIT and BBB assays and placed in the donor compartment. The results were expressed as a concentration in the acceptor solution.

Which results are given for `COc1ccc([C@@H]2CC(=O)c3c(O)cc(O)cc3O2)cc1O` [Hesperetin, hesperetin]?
hesperetin dissolved (% of the dose added to the dissolution medium) [1]: 23.75 ± 2.99%; Hesperetin Conc. (physchem; 3 h, pH 6.8): 0.005 ± 0.001 mg/mL; solubility thermodynamic at 3 h (physchem): 5 ± 1 µg/mL (≈ 16.5 µM); concentration of hesperetin in the acceptor part, PAMPA GIT (in vitro; 3 h, pH 6.8): 25.8 ± 6.16 ng/mL; Papp (in vitro; PAMPA, raw compound dissolved in DMSO, donor pH ≈ 6.8, 3 h, 37 °C, read-out: apparent permeability coefficient (Papp), PAMPA GIT): 2.59 ×10⁻⁶ cm/s; Papp at 3 h ([2]; PAMPA, pH 7.4): 7.05 ×10⁻⁶ cm/s; concentration of hesperetin in the acceptor part, PAMPA BBB ([2]; donor pH ≈ 7.4, 3 h, 37 °C): 38.9 ± 16.6 ng/mL

With `O=C(/C=C/C=C/c1ccc2c(c1)OCO2)N1CCCCC1` [Piperine, piperine] as the molecule, how does the “piperine dissolved (% of the dose added to the dissolution medium)” value [1] read?
Its value is 27.79 ± 3.38%.

And the “Piperine Conc.” value (physchem; 3 h, pH 6.8)?
The value was 0.006 ± 0.001 mg/mL.

And the solubility thermodynamic at 3 h (physchem)?
The solubility thermodynamic at 3 h was 6 ± 1 µg/mL (≈ 21 µM).

And the “concentration of piperine in the acceptor part, PAMPA GIT” value (in vitro; 3 h, pH 6.8)?
The value was 2010 ± 100 ng/mL.

What about the Papp at 3 h (in vitro; PAMPA, pH 6.8) of the same molecule?
Its Papp at 3 h is 37.3 ×10⁻⁶ cm/s.

And the “concentration of piperine in the acceptor part, PAMPA BBB” value ([2]; PAMPA, 3 h, pH 7.4)?
The value was 1030 ± 104 ng/mL.

And the Papp at 3 h ([2]; PAMPA, pH 7.4)?
Its Papp at 3 h is 40 ×10⁻⁶ cm/s.
